The assay concerns S. aureus, E. faecalis, S. pyogenes and S. pneumoniae. Briefly: Broth microdilution MIC (NCCLS), gram-positive strains. In kind it is cell-based. The method, then: Representative bis-quinazolines were tested for antibacterial activity using the […] microdilution method to determine their minimum inhibitory concentrations (MICs). All compounds were tested using standard methods in accordance with NCCLS guidelines (National Committee for Clinical Laboratory Standards. 2003. Methods for dilution antimicrobial susceptibility testing for bacteria that grow aerobically. Approved Standard M-7 A-6, NCCLS, Wayne, Pa.). The bacterial strains used in the susceptibility tests were obtained from the American Type Culture Collection (ATCC) and included resistant phenotypes such as oxacillin-resistant S. aureus (ORSA) and vancomycin-resistant enterococci (VRE). The minimum bactericidal concentrations (MBCs) were determined for selected organisms. The effect of protein binding on the antibacterial activity of representative bis-quinazolines were determined by conducting MIC tests in the presence of human serum.

[1] abbreviates: range against some strains of S. aureus, E. faecalis, S. pyogenes and S. pneumoniae, read-out: MIC.

Structures are written as SMILES. ≈ marks a conversion by molar mass, not a printed value. Like-named read-outs stand apart in the source and are kept apart here.

The values that follow come from patent publication US20050124562A1, “Bis-quinazoline compounds for the treatment of bacterial infections” (priority 2003, published 2005).

For `COc1ccc2c(C)nc(Nc3nc(O)c4ccccc4n3)nc2c1OC.O=C(O)C(F)(F)F` [Example 74, 2-(7,8-Dimethoxy-4-methyl-quinazolin-2-ylamino)-quinazolin-4-ol trifluoroacetate salt], the MIC under setting [1] fell in the range of 0.06 to 16 µg/mL.

Consider `COc1cc(OC)c2nc(Nc3nc(O)c4cc(C)cc(C)c4n3)nc(C)c2c1.O=C(O)C(F)(F)F` [Example 75, 2-(6,8-Dimethoxy-4-methyl-quinazolin-2-ylamino)-6,8-dimethyl-quinazolin-4-ol trifluoroacetate salt], for which the minimum inhibitory concentration (MIC) under setting [1] is 0.06 to 16 µg/mL.

On to `COc1cc2c(C)nc(Nc3nc(O)c4cccc(OC)c4n3)nc2cc1N.O=C(O)C(F)(F)F` [Example 76, 2-(6-methoxy-7-amino-4-methyl-quinazolin-2-ylamino)-8-methoxy-quinazolin-4-ol trifluoroacetate salt], for which the MIC under setting [1] lay within 0.06 to 16 µg/mL.

Turning to `COc1ccc2c(C)nc(Nc3nc(O)c4cccc(OC)c4n3)nc2c1OC.O=C(O)C(F)(F)F` [Example 78, 2-(7,8-Dimethoxy-4-methyl-quinazolin-2-ylamino)-8-methoxy-quinazolin-4-ol trifluoroacetate salt], under setting [1], the MIC was in the range of 0.06 to 16 µg/mL.

As for `COCCOc1cc(OC)cc2c(C)nc(Nc3nc(O)c4cccc(OC)c4n3)nc12.O=C(O)C(F)(F)F` [Example 79, 8-Methoxy-2-[6-methoxy-8-(2-methoxy-ethoxy)-4-methyl-quinazolin-2-ylamino]-quinazolin-4-ol trifluoroacetate salt], the MIC under setting [1] lay within 0.06 to 16 µg/mL.

On to `COCCOc1ccc2nc(Nc3nc(O)c4cccc(OC)c4n3)nc(C)c2c1.O=C(O)C(F)(F)F` [Example 80, 8-Methoxy-2-[6-(2-methoxy-ethoxy)-4-methyl-quinazolin-2-ylamino]-quinazolin-4-ol trifluoroacetate salt], for which the MIC under setting [1] lay within 0.06 to 16 µg/mL.

Regarding `COCCOc1c(OC)ccc2c(C)nc(Nc3nc(O)c4cccc(OC)c4n3)nc12.O=C(O)C(F)(F)F` [Example 81, 8-Methoxy-2-[7-methoxy-8-(2-methoxy-ethoxy)-4-methyl-quinazolin-2-ylamino]-quinazolin-4-ol trifluoroacetate salt], the MIC under setting [1] lay in the range of 0.06 to 16 µg/mL.

In the case of `COc1cccc2c(O)nc(Nc3nc(C)c4ccc5c(c4n3)OCCO5)nc12` [Example 82, 8-Methoxy-2-(8-methyl-2,3-dihydro-1,4-dioxa-5,7-diaza-phenanthren-6-ylamino)-quinazolin-4-ol], the MIC fell in the range of 0.06 to 16 µg/mL (≈ 0.153 to 40.9 µM).

`COc1cc(OC)c2nc(Nc3nc(O)c4c(OC)ccc(OC)c4n3)nc(C)c2c1.O=C(O)C(F)(F)F` [Example 100, 2-(6,8-Dimethoxy-4-methyl-quinazolin-2-ylamino)-5,8-dimethoxy-quinazolin-4-ol trifluoroacetate salt]: the MIC under setting [1] is 0.06 to 16 µg/mL.

On to `COc1cc2c(C)nc(Nc3nc(O)c4cccc(OC)c4n3)nc2cc1O.O=C(O)C(F)(F)F` [Example 103, 2-(4-Hydroxy-8-methoxy-quinazolin-2-ylamino)-6-methoxy-4-methyl-quinazolin-7-ol trifluoroacetate salt], for which the MIC under setting [1] is 0.06 to 16 µg/mL.

Consider `COc1cc2nc(Nc3nc(O)c4cc(OCCCl)ccc4n3)nc(C)c2cc1OC.O=C(O)C(F)(F)F` [Example 105, 6-(2-Chloro-ethoxy)-2-(6,7-dimethoxy-4-methyl-quinazolin-2-ylamino)-quinazolin-4-ol trifluoroacetate salt], for which the minimal inhibitory concentration (MIC) under setting [1] fell in the range of 0.06 to 16 µg/mL.

As to `COc1cc(OC)c2nc(Nc3nc(O)c4cc(OCCCl)ccc4n3)nc(C)c2c1.O=C(O)C(F)(F)F` [Example 107, 6-(2-Chloro-ethoxy)-2-(6,8-dimethoxy-4-methyl-quinazolin-2-ylamino)-quinazolin-4-ol trifluoroacetate salt], the MIC under setting [1] fell in the range of 0.06 to 16 µg/mL.

Regarding `COc1cc2nc(Nc3nc(O)c4c5c(ccc4n3)OCO5)nc(C)c2cc1OC.O=C(O)C(F)(F)F` [Example 109, 7-(6,7-Dimethoxy-4-methyl-quinazolin-2-ylamino)-1,3-dioxa-6,8-diaza-cyclopenta[a]naphthalen-9-ol trifluoroacetate salt], under setting [1], the MIC fell in the range of 0.06 to 16 µg/mL.

As for `COc1cc(OC)c2nc(Nc3nc(O)c4c(OC(C)C)cccc4n3)nc(C)c2c1.O=C(O)C(F)(F)F` [Example 111, 2-(6,8-Dimethoxy-4-methyl-quinazolin-2-ylamino)-5-isopropoxy-quinazolin-4-ol trifluoroacetate salt], under setting [1], the MIC was in the range of 0.06 to 16 µg/mL.

For the molecule `CCOc1cccc2nc(Nc3nc(C)c4cc(OC)cc(OC)c4n3)nc(O)c12.O=C(O)C(F)(F)F` [Example 112, 2-(6,8-Dimethoxy-4-methyl-quinazolin-2-ylamino)-5-ethoxy-quinazolin-4-ol trifluoroacetate salt], the MIC under setting [1] fell in the range of 0.06 to 16 µg/mL.

Consider `COc1cc2nc(Nc3nc(O)c4cc(N5CCOCC5)ccc4n3)nc(C)c2cc1OC.O=C(O)C(F)(F)F` [Example 114, 2-(6,7-Dimethoxy-4-methyl-quinazolin-2-ylamino)-6-morpholin-4-yl-quinazolin-4-ol trifluoroacetate salt], for which, under setting [1], the MIC lay within 0.06 to 16 µg/mL.

Regarding `COc1cc2c(C)nc(Nc3nc(O)c4cccc(OC)c4n3)nc2c(OC)c1OC.O=C(O)C(F)(F)F` [Example 116, 8-Methoxy-2-(6,7,8-trimethoxy-4-methyl-quinazolin-2-ylamino)-quinazolin-4-ol trifluoroacetate salt], under setting [1], the MIC lay within 0.06 to 16 µg/mL.

Turning to `COc1cccc2c(O)nc(Nc3nc(C)c4ccc(F)c(OC)c4n3)nc12.O=C(O)C(F)(F)F` [Example 117, 2-(7-Fluoro-8-methoxy-4-methyl-quinazolin-2-ylamino)-8-methoxy-quinazolin-4-ol trifluoroacetate salt], the MIC under setting [1] was 0.06 to 16 µg/mL.

In the case of `COc1cc2c(C)nc(Nc3nc(O)c4cccc(F)c4n3)nc2c(OC)c1OC.O=C(O)C(F)(F)F` [Example 118, 8-Fluoro-2-(6,7,8-trimethoxy-4-methyl-quinazolin-2-ylamino)-quinazolin-4-ol trifluoroacetate salt], the MIC under setting [1] lay in the range of 0.06 to 16 µg/mL.

On to `COc1c(F)ccc2c(C)nc(Nc3nc(O)c4cccc(F)c4n3)nc12.O=C(O)C(F)(F)F` [Example 119, 8-Fluoro-2-(7-fluoro-8-methoxy-4-methyl-quinazolin-2-ylamino)-quinazolin-4-ol trifluoroacetate salt], for which, under setting [1], the MIC was 0.06 to 16 µg/mL.

Take `COc1ccc2nc(Nc3nc(O)c4cc(N)cc(OC)c4n3)nc(C)c2c1.O=C(O)C(F)(F)F` [Example 123, 6-Amino-2-(6-methoxy-4-methyl-quinazolin-2-ylamino)-8-methoxy-quinazolin-4-ol trifluoroacetate salt]: the MIC under setting [1] was in the range of 0.06 to 16 µg/mL.

For `COc1cc(OC)c2nc(Nc3nc(O)c4cc(N)cc(OC)c4n3)nc(C)c2c1.O=C(O)C(F)(F)F` [Example 124, 6-Amino-2-(6,8-dimethoxy-4-methyl-quinazolin-2-ylamino)-8-methoxy-quinazolin-4-ol trifluoroacetate salt], the MIC under setting [1] is 0.06 to 16 µg/mL.

For `COc1cc(OC)c2nc(Nc3nc(O)c4cc(N)cc(C)c4n3)nc(C)c2c1.O=C(O)C(F)(F)F` [Example 126, 6-Amino-2-(6,8-dimethoxy-4-methyl-quinazolin-2-ylamino)-8-methyl-quinazolin-4-ol trifluoroacetate salt], under setting [1], the MIC lay in the range of 0.06 to 16 µg/mL.

Turning to `COc1cc2c(C)nc(Nc3nc(O)c4cccc(OC)c4n3)nc2cc1N(C)C.O=C(O)C(F)(F)F` [Example 127, 2-(7-Dimethylamino-6-methoxy-4-methyl-quinazolin-2-ylamino)-8-methoxy-quinazolin-4-ol trifluoroacetate salt], under setting [1], the MIC lay in the range of 0.06 to 16 µg/mL.
